Measurements taken from US6417187B2, “1,2,4-triazole based compounds that can be used as insecticides or acaricides and processes” (Dow AgroSciences LLC, priority 2000, dated 2002).

Columns and labels:
Format in all cases: in vivo
[1] = tested on: beet armyworm (Spodoptera exigua); assay: Insecticidal test for beet armyworm (treated lepidopteran diet); details: for pest or weed control at 400 ppm: Spodoptera exigua, 120 h, read-out: BAW: activity at 400 ppm against beet armyworm (% Control rating)
[2] = tested on: Brown Planthopper (Nilaparvata lugens); assay: Insecticidal test for Brown Planthopper (rice seedling roots in test solution)
[3] = tested on: cotton aphid (Aphis gossvpii); assay: Insecticidal test for cotton aphid (squash cotyledon spray); details: for pest or weed control at 50 ppm: 72 h, read-out: CA: activity at 50 ppm against cotton aphid (% Control rating)
[4] = tested on: Sweetpotato Whitefly (Bemisia tabacia); assay: Insecticidal test for Sweetpotato Whitefly (cotton plant spray); details: for pest or weed control at 200 ppm: Bemisia, 312 h, read-out: WF: activity at 200 ppm against whitefly (% Control rating)
[5] = tested on: tobacco budworm (Heliothis virescens); assay: Insecticidal test for tobacco budworm (cotton cotyledon leaf-disc dip); details: 400 ppm, cotton cotyledon leaf-dip, 2nd instar larvae, 5 days
[6] = tested on: cabbage looper (Trichoplusia ni); assay: Insecticidal test for cabbage looper (cabbage leaf-disc dip); details: for pest or weed control at 400 ppm: Trichoplusia ni, 120 h, read-out: CL: activity at 400 ppm against cabbage looper (% Control rating)
[7] = tested on: Green Leafhopper (Nephotettix cincticeps); assay: Insecticidal test for Green Leafhopper (rice seedling roots in test solution)
[8] = 400 ppm, treated diet, second-instar larvae, 5 days
[9] = 10 ppm test solution, rice seedling roots, 3rd instar nymphs, mortality at 6 days
[10] = 50 ppm spray on infested squash cotyledons, 3 days, population reduction versus untreated
[11] = 200 ppm spray on cotton plants, 13 days, reduction of large nymphs
[12] = 400 ppm, cabbage leaf-dip, 2nd instar larvae, 5 days

| SMILES | BAW: activity at 400 ppm against beet armyworm (% Control rating) [1, 8] | BPH: activity at 10 ppm against brown planthopper (% Control rating) [2, 9] | CA: activity at 50 ppm against cotton aphid (% Control rating) [3, 10] | WF: activity at 200 ppm against whitefly (% Control rating) [4, 11] | TBW: activity at 400 ppm against tobacco budworm (% Control rating) [5] | CL: activity at 400 ppm against cabbage looper (% Control rating) [6, 12] | further results |
| --- | --- | --- | --- | --- | --- | --- | --- |
| CCCc1ccc(C#Cc2sc(-c3nc(-c4c(F)cccc4Cl)nn3C)c(Cl)c2Cl)cc1 [Compound 14] | A (90-100) | F (less than 50) | A (90-100) | F (less than 50) | A (90-100) | A (90-100) | – |
| Cn1nc(-c2c(F)cccc2Cl)nc1-c1sc(C#Cc2ccc(-c3ccccc3)cc2)c(Cl)c1Cl [Compound 16] | F (less than 50) | F (less than 50) | F (less than 50) | F (less than 50) | – | D (60-69) | GLH: activity at 10 ppm against green leafbopper (% Control rating) [7, 9]: F (less than 50) |
| Cn1nc(-c2c(F)cccc2Cl)nc1-c1sc(C#Cc2ccccc2F)c(Cl)c1Cl [Compound 9] | B (80-89) | F (less than 50) | – | F (less than 50) | A (90-100) | A (90-100) | – |
| Cn1nc(-c2c(F)cccc2Cl)nc1-c1sc(C#Cc2ccc(F)c(C(F)(F)F)c2)c(Cl)c1Cl [Compound 47] | A (90-100) | F (less than 50) | C (70-79) | – | A (90-100) | A (90-100) | – |
| C#Cc1sc(-c2nc(-c3c(F)cccc3Cl)nn2C)c(Cl)c1Cl [Compound 2, 1-Methyl-3-(2-chloro-6-fluorophenyl)-5-(3,4-dichloro-5-ethynvl-thien-2-yl)[1,2,4]triazole] | – | D (60-69) | – | – | – | – | pest or weed control at 50 ppm [3, 10]: 60 to 69%; pest or weed control at 400 ppm [6, 12]: < 50%; GLH: activity at 10 ppm against green leafbopper (% Control rating) [7, 9]: F (less than 50) |
| CCCCn1nc(-c2c(F)cccc2Cl)nc1-c1sc(C#Cc2ccc(CCC)cc2)c(Cl)c1Cl [Compound 82] | D (60-69) | – | F (less than 50) | F (less than 50) | – | A (90-100) | – |
| Cc1cc(F)ccc1C#Cc1sc(-c2nc(-c3c(F)cccc3Cl)nn2C)c(Cl)c1Cl [Compound 52] | A (90-100) | – | D (60-69) | F (less than 50) | A (90-100) | A (90-100) | – |
| COc1ccc(C#Cc2sc(-c3nc(-c4c(F)cccc4Cl)nn3C)c(Cl)c2Cl)cc1Cl [Compound 48] | A (90-100) | F (less than 50) | D (60-69) | – | – | A (90-100) | – |
| Cn1nc(-c2c(F)cccc2Cl)nc1-c1sc(C#Cc2cnc(N3CCCCC3)nc2)c(Cl)c1Cl [Compound 64] | B (80-89) | – | – | F (less than 50) | – | A (90-100) | – |
| Cn1nc(-c2c(F)cccc2Cl)nc1-c1sc(C#Cc2ccc(F)cc2)c(Cl)c1Cl [Compound 12] | A (90-100) | F (less than 50) | C (70-79) | F (less than 50) | – | A (90-100) | GLH: activity at 10 ppm against green leafbopper (% Control rating) [7, 9]: F (less than 50) |
| Cn1nc(-c2c(F)cccc2Cl)nc1-c1sc(C#Cc2ccsc2)c(Cl)c1Cl [Compound 46] | D (60-69) | F (less than 50) | E (50-59) | F (less than 50) | – | D (60-69) | – |
| Cn1nc(-c2c(F)cccc2Cl)nc1-c1sc(C#Cc2ccc(F)cc2F)c(Cl)c1Cl [Compound 23, 3-(2-chloro-6-fluorophenyl)-5-(5-(2,4-difluorophenylalkynyl)-3,4-dichloro-2-thiophene)-1-methyl-1H-1,2,4-triazole] | – | – | – | – | – | – | pest or weed control at 400 ppm [1, 8]: 90 to 100%; pest or weed control at 50 ppm [3, 10]: < 50%; pest or weed control at 200 ppm [4, 11]: < 50%; pest or weed control at 400 ppm [6, 12]: 90 to 100%; GLH: activity at 10 ppm against green leafbopper (% Control rating) [7, 9]: F (less than 50) |
| COc1ccc(C#Cc2sc(-c3nc(-c4c(Cl)cncc4Cl)nn3C)c(Cl)c2Cl)cc1 [Compound 87] | F (less than 50) | – | – | – | F (less than 50) | F (less than 50) | – |
| Cn1nc(-c2c(F)cccc2Cl)nc1-c1sc(C#Cc2cnc(N3CCOCC3)nc2)c(Cl)c1Cl [Compound 63] | D (60-69) | – | – | F (less than 50) | – | A (90-100) | – |
| Cn1nc(-c2c(F)cccc2Cl)nc1-c1ccc(C#Cc2ccc(C(F)(F)F)cc2)c(Cl)c1Cl [Compound 94, 1-Methyl-3-(2-Chloro-6-fluorophenyl)-5-(2,3-dichloro-4-(2-(4-trifluoromethyl)phenyl)-ethynyl-phenyl)-1 H[1,2,4]triazole] | – | – | – | – | – | – | pest or weed control at 400 ppm [1, 8]: 90 to 100%; pest or weed control at 50 ppm [3, 10]: 80 to 89%; pest or weed control at 200 ppm [4, 11]: < 50%; pest or weed control at 400 ppm ([5]; Heliothis virescens, 120 h, read-out: TBW: activity at 400 ppm against tobacco budworm (% Control rating)): 60 to 69%; pest or weed control at 400 ppm [6, 12]: 90 to 100% |
| CCCc1ccc(C#Cc2sc(-c3nc(-c4c(F)cccc4Cl)nn3CC)c(Cl)c2Cl)cc1 [Compound 81] | A (90-100) | – | F (less than 50) | F (less than 50) | F (less than 50) | D (60-69) | – |
| Cc1ccsc1C#Cc1sc(-c2nc(-c3c(F)cccc3Cl)nn2C)c(Cl)c1Cl [Compound 36] | – | D (60-69) | E (50-59) | F (less than 50) | – | A (90-100) | GLH: activity at 10 ppm against green leafbopper (% Control rating) [7, 9]: D (60-69) |
| CCOc1ccc(C#Cc2sc(-c3nc(-c4c(F)cccc4Cl)nn3C)c(Cl)c2Cl)cc1F [Compound 60] | A (90-100) | – | F (less than 50) | E (50-59) | – | A (90-100) | – |
| CCCc1ccc(C#Cc2ccc(-c3nc(-c4c(F)cccc4Cl)nn3C)c(Cl)c2Cl)cc1 [Compound 90] | – | – | – | – | – | – | BAW: activity at 400 ppm against beet armyworm (% Control rating) ([1]; in vivo): A (key: A: 90-100; B: 80-89; C: 70-79; D: 60-69; E: 50-59; F: less than 50; G: inactive); BPH: activity at 10 ppm against brown planthopper (% Control rating) ([2]; in vivo): E (key: A: 90-100; B: 80-89; C: 70-79; D: 60-69; E: 50-59; F: less than 50; G: inactive); CA: activity at 50 ppm against cotton aphid (% Control rating) ([3]; in vivo): B (key: A: 90-100; B: 80-89; C: 70-79; D: 60-69; E: 50-59; F: less than 50; G: inactive); WF: activity at 200 ppm against whitefly (% Control rating) ([4]; in vivo): F (key: A: 90-100; B: 80-89; C: 70-79; D: 60-69; E: 50-59; F: less than 50; G: inactive); CL: activity at 400 ppm against cabbage looper (% Control rating) ([6]; in vivo): A (key: A: 90-100; B: 80-89; C: 70-79; D: 60-69; E: 50-59; F: less than 50; G: inactive); GLH: activity at 10 ppm against green leafbopper (% Control rating) ([7]; in vivo): F (key: A: 90-100; B: 80-89; C: 70-79; D: 60-69; E: 50-59; F: less than 50; G: inactive) |
